Assay results reported in US11047847B2, “Methods and apparatus for modeling cancer metastasis in vitro” (Wake Forest University Health Sciences, priority 2015, dated 2021).
Entries after “also recorded” stand apart in the source; their conditions may differ.

Columns and labels:
[1] = test system: HT29 organoids (BRAFMT); test: MTS assay of mitochondrial metabolism in CRC organoids in microfluidic devices; assay type: cell-based; conditions: 48-hour treatment
Source text: (§1) Precision medicine—identifying treatments for patients based on their tumor genetic profiles—has gained significant traction. […] In a non-limiting example, colorectal cancer (CRC) organoids were created by encapsulating CRC cells (Caco2 and SW480—WT; HCT116—KRASMT; and HT29—BRAFMT) in hyaluronic acid and gelatin hydrogels in microfluidic devices. Each type of CRC organoid was then subjected to a panel of clinical CRC drugs: 5-FU or oxaliplatin (1st line drugs effective in WT tumors), Tramatinib (an EGFR pathway drug effective in KRASMT tumors), and sorafenib or regorafenib (EGFR pathway drugs effective in BRAFMT tumors). Following 48-hour treatments, organoids were assessed for mitochondrial metabolism by MTS assays. There appeared to be clear differences in drug responsiveness that correlated with EGFR genetic states.

[2] = test system: HCT116 organoids (KRASMT); test: as above; assay type: cell-based, human; conditions: 48-hour treatment
Source text: as §1

[3] = test system: HCT-116 cells; test: Drug treatment and assessment of migration, multi-zone tumor organoid migration model (soft tumor, stiff tissue); assay type: cell-based, human; conditions: 50 μM Marimastat in DMEM vs no drug control
Protocol: To assess the influence of the physical tumor microenvironment parameters on tumor cell migration, a variation of the organoids described above were […]. Instead of encapsulating homogenously mixed cells throughout the hydrogel, 3-D organoid volumes were formed first, after which a volume of 5 μL HCT-116 cells in hydrogel precursor solution was pipetted into the center of the organoid space and polymerized in place by a 1 second exposure to UV light. […] Organoid and tumor zone elastic moduli were modulated by swapping of the linear PEGDA crosslinker molecule (3.4 kDa MW) with a 4-arm PEG-acrylate molecule (10 kDa MW, Creative PEGWorks, Winston-Salem, N.C.) or 8-arm PEG-acrylate crosslinker molecule (10 kDa MW, Creative PEGWorks) to generate stiffer hydrogels. […] Fluorescent and brightfield overlay images were captured on day 3, day 7, and day 10, from which distances of migration of cells out of the tumor were determined over time using ImageJ software. […]

[4] = test system: Caco2 organoids (WT); test: MTS assay of mitochondrial metabolism in CRC organoids in microfluidic devices; assay type: cell-based; conditions: 48-hour treatment
Source text: as §1

[5] = test system: SW480 organoids (WT); test: as above; assay type: cell-based; conditions: 48-hour treatment
Source text: as §1

CNC(=O)c1cc(Oc2ccc(NC(=O)Nc3ccc(Cl)c(C(F)(F)F)c3)c(F)c2)ccn1 [regorafenib]
drug sensitivity (mitochondrial metabolism by MTS) [1]: slight sensitivity

CNC(=O)c1cc(Oc2ccc(NC(=O)Nc3ccc(Cl)c(C(F)(F)F)c3)cc2)ccn1 [sorafenib]
drug sensitivity (mitochondrial metabolism by MTS) [2]: particularly sensitive

CNC(=O)C(NC(=O)C(CC(C)C)C(O)C(=O)NO)C(C)(C)C (stereo not shown) [Marimastat, N-[2,2-dimethyl-1-(methylcarbamoyl)propyl]-2-[hydroxy-(hydroxycarbamoyl)methyl]-4-methyl-pentanamide]
migration distance of HCT-116 cells out of the tumor ([3]; day 3, day 7 and day 10, length in pixel counts, p<0.05): significantly prevented migration
tumor cell invasion / outward growth of HCT-116 aggregates into the surrounding 3-D environment ([3]; overlay images, day 10): reduce tumor cell invasion; also recorded: prevents outward growth of aggregates

O=c1[nH]cc(F)c(=O)[nH]1 [5-FU]
drug sensitivity (mitochondrial metabolism by MTS) [2]: particularly sensitive
drug sensitivity (mitochondrial metabolism by MTS) [4]: particularly sensitive
drug sensitivity (mitochondrial metabolism by MTS) [5]: particularly sensitive
